# Data taken from patent US20180169135A1, “METHOD FOR PREVENTING TRANSPLANT FAILURE IN A HOST” (Universiteit Maastricht, priority 2015, published 2018).
# Target: Histon H3 (Homo sapiens, UniProt P68431)
substance,measurement,value
heparin [UFH],neutralization of the cytotoxic activity of Histon H3,neutralize the cytotoxic activity of Histon H3
